{"source": "ChEMBL document CHEMBL1126497", "about": "“A new type of cytotoxic annonaceous acetogenin: Giganin from goniothalamus giganteus” (1993)", "type_in_all_cases": "functional", "key": {"[1]": {"assay": "The compound was tested for cytotoxicity against BST cell in brine shrimp", "conditions": "Artemia"}, "MCF7": {"tested_on": "MCF7", "assay": "The compound was tested for cytotoxicity against MCF-7 cell in human breast carcinoma", "conditions": "read-out: ED50 (the source's name)"}, "HT-29": {"tested_on": "HT-29", "assay": "The compound was tested for cytotoxicity against […] in human colon adenocarcinoma", "conditions": "read-out: ED50 (the source's name)"}, "A549": {"tested_on": "A549", "assay": "The compound was tested for cytotoxicity against A-549 cell in human lung carcinoma", "conditions": "read-out: ED50 (the source's name)"}}, "data": [{"smiles": "CCCCCCCCCCCCCCC(O)C(O)CC/C=C\\CCC(O)CCCCCC(O)CC1=CC(C)OC1=O", "note": "(centres undefined)", "values": [{"measurement": "LC50", "setting": "[1]", "result": 890, "unit": "µg/mL"}, {"measurement": "EC50", "setting": "MCF7", "result": 1.03, "unit": "µg/mL"}, {"measurement": "EC50", "setting": "HT-29", "result": 0.00688, "unit": "µg/mL"}, {"measurement": "EC50", "setting": "A549", "result": 0.0188, "unit": "µg/mL"}]}]}
